In patent US9063163B2, “Lyophilised dabigatran” (Boehringer Ingelheim International GmbH, priority 2009, dated 2015):

Legend:
[1] = Hygroscopicity of dabigatran (descriptive); format: physicochemical; settings: leads to formation of different hydrated forms
[2] = Solubility of dabigatran (descriptive); format: physicochemical

With [H]/N=C(/N)c1ccc(NCc2nc3cc(C(=O)N(CCC(=O)O)c4ccccn4)ccc3n2C)cc1 [dabigatran] as the molecule, how does the Hygroscopicity [1] read?
The Hygroscopicity was “hygroscopic”.

What about the Solubility [2] of the same molecule?
The Solubility was “sparingly soluble”.
